Test results: US9073858B2, “Methods of targeted drug development” (priority 2010, dated 2015)
Like-named read-outs stand apart in the source and are kept apart here.

Key:
[1] = system: epithelial carcinoma A431 cell line; assay: MTT Cell Proliferation Assay, A431 cell line; assay type: cell-based; conditions: for MTT-72 h % Max: maximal effect printed after the ratio; for MTT-72 h A431/MDBK (ratio) / MTT (10 Point follow-up) ratio: value in brackets; for MTT-72 h A431/MDBK (ratio): numerically MDBK value over A431 value; for MTT (10 Point follow-up) ratio: numerically MDBK over A431
Excerpt: (§1) The following example describes the MTT Cell Proliferation Assay.
(§2) The MTT Cell Proliferation Assay is a colorimetric assay system that measures the reduction of the tetrazolium salt MTT (3-(4,5-dimethylthiazol-2-yl)-2,5-diphenyltetrazolium bromide) into insoluble formazan crystals, produced by the mitochondria of viable cells. […] The color can then be quantified by spectrophotometric means. Among the applications for the method are drug sensitivity, cytotoxicity, response to growth factors, and cell activation. The reduction of tetrazolium salts is now recognized as a safe, accurate alternative to radiometric testing.
(§3) Two replicates on each cell plate and 2 duplicate plates gave 4 individual replicates of each concentration, in each cell line. Concentrations were diluted in 100% DMSO from 25 mM stocks.
(§4) Twelve 96 well plates of each cell line were plated. Plating was done by dislodging cells as in passage protocol, counting on a hemocytometer, re-suspending in standard growth media, and plating using a multichannel pippetor.
(§5) 16 μl of 25 mM stock+34 μl DMSO=8 mM starting concentrations, and serial diluted as with test compounds in same plate. […] Two replicates of each concentrations was run on each cell plate. All compound addition and cell treatments were done using aseptic technique under a laminar flow aseptic hood.
(§6) Control: 0.5% DMSO in treatment media was used as the control.
(§7) MTT dye (Thiazolyl Blue Tetrazolium Bromide, Sigma cat # M5655) stock was prepared in bulk and stored at 4° C. for use: 5 mgs/ml sterile PDS, shielded from light. 4 ul of this stock per 100 uls treatment media per well was used.
(§8) Plates were incubated overnight prior to treatment, with treatment day=Day 0. Compound treatments were prepared prior to washing cells to minimize time cells were dry at room temperature after final aspiration. Compounds were diluted in 100% DMSO in 96 well polypropylene plates:40 μl 25 mM stock+10 μl DMSO=20 mM; 20 μl of 20 mM+30 μl DMSO=8 mM; 20 μl of 8 mM+30 μl DMSO=3.2 mM; 20 μl of 3.2 mM+30 μl DMSO=1.3 mM; 20 μl of 1.3 mM+30 μl DMSO=0.51 mM.
(§9) 5.0 μl/ml were added to treatment media, in sterile, 2.2 ml deep well plates=0.5% dmso final. Ten μl of each dmso concentration was added to 2.0 ml of treatment media and then mixed using a 1200 μl multichannel pipettor. Cell plates were treated from the deep well plates. Treatment media was standard growth media containing 0.5% FBS and standard additions. This reduced FBS concentration allowed for a slower growth rate in cells.
(§10) Media was aspirated from cell plates, and washed with 200 μl/well sterile PBS. Aspirated PBS wash, and cell plates were treated with 200 μl of compound/treatment media per well, and incubated at 37° C., 5% CO2 for 3 days.
(§11) Prior to harvesting, visual observations were made under an inverted microscope. Plates were harvested by: aspirating the growth media; adding back MTT dye/100 μl treatment media; and incubating plates at 37° C. for 1 hour. MTT dye was aspirated. 100 μl/well dmso was added, and then shaken on a Bellco plate shaker for 5 minutes, at 4.5 setting.
(§12) Plates were read in a Tecan Sunrize UV plate reader, at 560 nm. Settings: Read mode, Outside Normal 2 sec; Shake settle time 3 sec. Data is reported as % inhibition, calculated for individual plates using control values from that plate.

MDBK line = assay: MTT Cell Proliferation Assay, MDBK line; assay type: cell-based, bovine
Excerpt: as §1, §2, §3, §4, §5, §6, §7, §8, §9, §10, §11, §12

EGFR = molecular target: T1, EGFR (Homo sapiens, UniProt P00533); assay: EGFR in-cell Western (ICW) screening protocol; assay type: cell-based; parameters: unit not given here; conditions: for ICW Screen: initial screen
T1 construct: endogenous in cells; host or cells: A431 cells (ATCC CRL-1555)
T1 sequence (P00533 25-1210): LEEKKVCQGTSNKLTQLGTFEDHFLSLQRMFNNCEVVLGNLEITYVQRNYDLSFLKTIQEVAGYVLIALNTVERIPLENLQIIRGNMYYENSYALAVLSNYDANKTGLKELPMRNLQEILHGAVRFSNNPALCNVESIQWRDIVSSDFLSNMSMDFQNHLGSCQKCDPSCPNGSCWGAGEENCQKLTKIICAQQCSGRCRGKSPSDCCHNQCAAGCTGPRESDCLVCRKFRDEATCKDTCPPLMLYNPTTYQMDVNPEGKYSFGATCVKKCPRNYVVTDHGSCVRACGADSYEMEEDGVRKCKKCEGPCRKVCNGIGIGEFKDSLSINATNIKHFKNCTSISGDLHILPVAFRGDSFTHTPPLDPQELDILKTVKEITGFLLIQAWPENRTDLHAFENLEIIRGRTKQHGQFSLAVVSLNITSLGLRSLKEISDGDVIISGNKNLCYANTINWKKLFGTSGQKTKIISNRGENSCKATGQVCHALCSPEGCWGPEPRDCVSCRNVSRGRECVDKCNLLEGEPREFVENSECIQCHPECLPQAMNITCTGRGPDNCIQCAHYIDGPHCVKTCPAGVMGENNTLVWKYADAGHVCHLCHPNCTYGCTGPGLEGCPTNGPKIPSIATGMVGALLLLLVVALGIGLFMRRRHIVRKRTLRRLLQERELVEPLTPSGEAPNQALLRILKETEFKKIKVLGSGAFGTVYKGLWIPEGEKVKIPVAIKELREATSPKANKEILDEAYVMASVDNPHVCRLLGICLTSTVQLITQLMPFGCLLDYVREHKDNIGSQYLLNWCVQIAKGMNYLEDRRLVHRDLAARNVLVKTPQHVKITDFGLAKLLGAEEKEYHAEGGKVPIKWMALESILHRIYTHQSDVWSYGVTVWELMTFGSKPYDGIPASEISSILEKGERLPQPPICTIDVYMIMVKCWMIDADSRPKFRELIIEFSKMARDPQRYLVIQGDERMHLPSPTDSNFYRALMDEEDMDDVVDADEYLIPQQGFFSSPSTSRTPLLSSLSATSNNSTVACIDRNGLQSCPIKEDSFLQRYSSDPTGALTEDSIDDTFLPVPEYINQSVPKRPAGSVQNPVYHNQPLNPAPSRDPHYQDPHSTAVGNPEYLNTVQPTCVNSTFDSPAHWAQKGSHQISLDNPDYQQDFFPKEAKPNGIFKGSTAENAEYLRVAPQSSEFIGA
Description: The following example describes general EGFR in-cell Western (ICW) screening protocol.
Two cell plates were prepared for each compound plate.
Serum Starvation: The cells were serum starved prior to compound addition. […] The cell plates were incubated at 37° C./5% CO2 for 2 hours.
Prepared compound plates were stored at RT prior to use and at 4° C. long term.
Compound Dilution Plate Preparation: 250 μl of DMEM supplemented with 1 mg/ml BSA (Sigma A3059-10G) was added to the appropriate wells of a 96 well plate to prepare the compound dilution plates. Using a multichannel pipettor, 1.25 μl of compound from the compound plate was transferred into the compound dilution plate.
Compound Addition: The starve media was removed from the cell plates by aspiration. Using a multichannel pipettor, the compound dilution plates were mixed by pipetting up and down three times. 50 μl of mixed, diluted compound was added to each of two rows/columns on each of two cell plates. The cell plates with compound were incubated at 37° C./5% CO2 for 4 hours.
50 μl of 20 or 0 ng/ml EGF was added to the appropriate wells without the removal of compound. The compound and EGF were mixed by pipetting up and down three times.
The plates were incubated at RT for 20 min without shaking. The Fixation Solution was removed by aspiration and the plates washed four times with 200 μl each of Triton Wash Solution (1×PBS, Sigma P3813-10PK, and 0.1% Triton X-100, T8787-50ML) for 5 min with gentle shaking.
The block was removed by aspiration and 50 μl of diluted primary Ab mix was added. The plates were incubated at 4° C. overnight with gentle shaking. The plates were washed five times with 200 μl of PBST (1×PBS, Sigma P3813-10PK, and 0.1% Tween-20, Sigma P9416-50ML) for 5 min each with shaking. 50 μl of diluted secondary Ab mix was added and the plates incubated at RT for 1 h with shaking. The plates were washed 5× with 200 μl of PBST for 5 min each with shaking. One final wash with 200 μl of PBS (Sigma P3813-10PK) for 5 min with shaking was performed prior to scanning.
In some screening assays, the dilution of the secondary Ab conjugates was 1/800 rather than 1/1200.
Plate Scanning: The plates were scanned on an Odyssey Infrared Imaging System from LI-COR Biosciences. The focus offset was set at 3.5 mm and the scanning intensity set at 3 for the 700 channel and 7 for the 800 channel.
Data Analysis: The % of Maximum and % Inhibition values were calculated as follows. 700 Channel=signal for total EGFR (used to control for variation in cell number). 800 Channel=signal for phosphorylated EGFR. 800−EGF=basal level EGFR phosporylation+non-specific signal (no compound). 800+EGF=800−EGF+EGF dependent EGFR receptor phosphorylation (no compound). 700/800com=700 or 800 channel signals with compound. % Maximum={[(800com/700com)−(800−EGF/700−EGF)]/[(800+EGF/700+EGF)−(800−EGF/700−EGF)]}×100%. % Inhibition=100%−(% Maximum).

[2] = Homo sapiens, A-431, 72 h, 72 h, first value of A431/MDBK pair, read-out: MTT-72 h A431
[3] = Bos taurus, MDBK, 72 h, second value of A431/MDBK pair, read-out: MTT-72 h MDBK
[4] = Homo sapiens, A-431, 10 point follow-up, first value of pair, read-out: MTT (10 Point follow-up) A431
[5] = Bos taurus, MDBK, 10 point follow-up, second value of pair, read-out: MTT (10 Point follow-up) MDBK

SMILES | MTT-72 h % Max ([1]; 72 h) [%] | MTT-72 h A431/MDBK (ratio) ([1]; 72 h) | IC50 [1, 2] [µM] | IC50 (MDBK line; [3]) [µM] | ICW Screen (EGFR) | ICW Re-Test (EGFR) | MTT (10 Point follow-up) ratio ([1]; 10 point follow-up) | IC50 [1, 4] [µM] | IC50 (MDBK line; [5]) [µM] | IC50 ([1]; 10 point follow-up, first value of pair, read-out: MTT (10 Point follow-up) A431) [µM] | IC50 ([1]; 72 h, first value of A431/MDBK pair, read-out: MTT-72 h A431) [µM] | IC50 (MDBK line; 10 point follow-up, second value of pair, read-out: MTT (10 Point follow-up) MDBK) [µM] | IC50 (MDBK line; 72 h, second value of A431/MDBK pair, read-out: MTT-72 h MDBK) [µM] | MTT (10 Point follow-up) % Max ([1]; 10 point follow-up, maximal effect) [%]
Cc1ccc2ccc(C(Nc3ccccn3)c3ccc(C)s3)c(O)c2n1 (stereo not drawn) [compound 10961] | 50 | 1.34 | 32.4 | 43.5 | 94.69 | 71.58 | – | – | – | – | – | – | – | –
Cc1ccc2ccc(C(Nc3ccccn3)c3sccc3C)c(O)c2n1 (stereo not drawn) [compound 10958] | – | 0.65 | 14.8 | 9.67 | 60.73 | 70.92 | – | – | – | – | – | – | – | –
Oc1cc2cccnc2cc1C(Nc1ccccn1)c1cccs1 (stereo not drawn) [compound 10938] | – | 0.88 | 25.3 | 22.1 | 40.36 | 24.99 | – | – | – | – | – | – | – | –
Oc1ccccc1C(Nc1ccccn1)c1ccc2cccnc2c1O (stereo not drawn) [compound 10427] | – | 0.87 | 5.56 | 4.82 | 43.39 | 43.82 | – | – | – | – | – | – | – | –
Oc1c(C(Nc2ccccn2)c2ccc(Cl)c(Cl)c2)ccc2cccnc12 (stereo not drawn) [compound 10109] | – | – | – | – | 12.75 | – | 2.58 | 0.534 | 1.38 | – | – | – | – | –
Cc1ccnc(NC(c2ccc(Cl)cc2)c2ccc3cccnc3c2O)c1 (stereo not drawn) [compound 10481] | – | – | – | – | 25.82 | – | 1.54 | 0.798 | 1.23 | – | – | – | – | –
Cc1ccnc(NC(c2ccc(O)cc2)c2ccc3ccc(C)nc3c2O)c1 (stereo not drawn) [compound 10016] | – | 1.00 | 25.8 | 25.8 | 41.45 | 29.99 | – | – | – | – | – | – | – | –
Oc1c(C(Nc2ccccn2)c2cccnc2)cc(Cl)c2cccnc12 (stereo not drawn) [compound 10955] | – | 0.97 | 5.5 | 5.36 | 37.33 | 53.58 | – | – | – | – | – | – | – | –
Oc1c(C(Nc2cccc(F)c2)c2ccccn2)ccc2cccnc12 (stereo not drawn) [compound 11105] | – | 1.29 | 5.46 | 7.03 | 48.25 | 17.88 | 1.38 | 4.72 | 6.5 | – | – | – | – | –
Cc1ccnc(NC(c2ccc(C(F)(F)F)cc2)c2ccc3cccnc3c2O)c1 (stereo not drawn) [compound 10486] | – | 2.76 | 0.29 | 0.8 | 25.02 | – | 3.07 | 0.275 | 0.844 | – | – | – | – | –
Cc1cccc(NC(c2ccc(C(F)(F)F)cc2)c2ccc3cccnc3c2O)n1 (stereo not drawn) [compound 10483] | – | – | – | – | 17.58 | – | – | – | – | 0.253 | 0.26 | 0.481 | 0.49 | –
CON1CCN(C(c2cccnc2)c2ccc3cccnc3c2O)CC1 (stereo not drawn) [compound 10551] | – | 0.57 | 20.1 | 11.4 | 29.14 | – | – | – | – | – | – | – | – | –
Cc1ccnc(NC(c2ccccc2F)c2ccc3cccnc3c2O)c1 (stereo not drawn) [compound 10488] | – | – | – | – | 15.95 | – | 1.20 | 1.85 | 2.22 | – | – | – | – | –
Cc1ccnc(NC(c2ccc(F)cc2)c2ccc3cccnc3c2O)c1 (stereo not drawn) [compound 10522] | – | – | – | – | 26.6 | – | 1.14 | 1.65 | 1.89 | – | – | – | – | –
COc1ccc(C(NC(=O)C2CCCCC2)c2cc([N+](=O)[O-])c3cccnc3c2O)cc1OC (stereo not drawn) [compound 10940] | 57 | 1.21 | 13.6 | 16.6 | 38.28 | 72.45 | 1.77 | 0.336 | 0.594 | – | – | – | – | –
OCCN1CCN(C(c2cccs2)c2ccc3cccnc3c2O)CC1 (stereo not drawn) [compound 10546] | – | 0.84 | 7.03 | 5.92 | 25.23 | – | – | – | – | – | – | – | – | –
Oc1c(C(Nc2ccccn2)c2c(F)cccc2Cl)cc(Cl)c2cccnc12 (stereo not drawn) [compound 10105] | – | 1.12 | 1.29 | 1.45 | 3.88 | – | 1.40 | 0.605 | 0.85 | – | – | – | – | 77
CC(C)Oc1ccc(C(Nc2ccccn2)c2ccc3cccnc3c2O)cc1 (stereo not drawn) [compound 10068] | – | 0.91 | 5.72 | 5.19 | 29.92 | – | – | – | – | – | – | – | – | –
CCOc1cc(C(NC(C)=O)c2cc([N+](=O)[O-])c3cccnc3c2O)ccc1O (stereo not drawn) [compound 10951] | – | 0.97 | 5.58 | 5.44 | 38.95 | 31.33 | – | – | – | – | – | – | – | –
Cc1ccnc(NC(c2ccc3cccnc3c2O)c2sccc2C)c1 (stereo not drawn) [compound 10963] | 40 | 1.98 | – | – | 100.4 | 99.05 | – | – | – | – | – | – | – | –
